{"source": "paper PMC9228641", "about": "(Journal of medicinal chemistry, 2021)", "key": {"[1]": {"tested_on": "HCV replicon D168A variant", "assay": "microbe, parasite or virus in culture", "conditions": "Hepatitis C virus, Huh-7, 96 h, read-out: EC50 against D168A variant"}, "GT-3a NS3/4A protease": {"tested_on": "GT-3a NS3/4A protease", "assay": "Enzyme inhibition assay", "type": "biochemical, Hepatitis C virus", "conditions": "relative to 12"}, "[2]": {"tested_on": "HCV GT-3a replicon, S52/SG-Feo SHI", "conditions": "relative to 12"}, "[3]": {"tested_on": "HCV replicon D168A variant"}, "[4]": {"tested_on": "WT HCV Con1 (GT-1b) reporter replicon containing the H77 (GT-1a) NS3 protease region", "assay": "Antiviral replicon assay, WT HCV", "type": "cell-based, Hepatitis C virus", "conditions": "for fold improvement in antiviral activity against WT HCV: more active, relative to 36"}, "HCV replicons": {"tested_on": "HCV replicons", "assay": "Replicon assays, variant not given", "type": "cell-based, Hepatitis C virus", "conditions": "more potent than 38"}, "[5]": {"conditions": "less active, compared to the (S)-stereoisomer 30"}}, "note": "Where two headings read alike, the source gives them in different places.", "data": [{"smiles": "COc1ccc2nc(C)c(O[C@@H]3C[C@H]4C(=O)N[C@]5(C(=O)NS(=O)(=O)C6(C)CC6)C[C@H]5/C=C/CCCCC[C@H](NC(=O)OC5CCC5)C(=O)N4C3)nc2c1", "note": "[Compound 21]", "values": [{"measurement": "EC50", "setting": "[1]", "result": "< 5", "unit": "nM"}]}, {"smiles": "COc1ccc2nc(C)c(O[C@@H]3C[C@H]4C(=O)N[C@]5(C(=O)NS(=O)(=O)C6(C)CC6)C[C@H]5C=CCCCCC[C@H](NC(=O)OCC5(C(F)(F)F)CC5)C(=O)N4C3)nc2c1", "note": "(stereo in doubt) [Compound 15, (1-(Trifluoromethyl)cyclopropyl)methyl ((2R,6S,13aS,14aR,16aS,Z)-2-((7-methoxy-3-methylquinoxalin-2-yl)oxy)-14a-(((1-methylcyclopropyl)sulfonyl)carbamoyl)-5,16-dioxo-1,2,3,5,6,7,8,9,10,11,13a,14,14a,15,16,16a-hexadecahydrocyclopropa[e]pyrrolo[1,2-a][1,4]diazacyclopentadecin-6-yl)carbamate]", "values": [{"measurement": "fold lower activity against GT-3a, enzyme assay", "setting": "GT-3a NS3/4A protease", "result": 2, "unit": "fold"}, {"measurement": "fold lower activity against GT-3a, replicon assay", "setting": "[2]", "result": 2, "unit": "fold"}]}, {"smiles": "COc1ccc2nc(C)c(O[C@@H]3C[C@H]4C(=O)N[C@]5(C(=O)NS(=O)(=O)C6(C)CC6)C[C@H]5C=CCCCCC[C@H](NC(=O)OC5(C(F)(F)F)CCCC5)C(=O)N4C3)nc2c1", "note": "(stereo in doubt) [Compound 24, 1-(Trifluoromethyl)cyclopentyl ((2R,6S,13aS,14aR,16aS,Z)-2-((7-methoxy-3-methylquinoxalin-2-yl)oxy)-14a-(((1-methylcyclopropyl)sulfonyl)carbamoyl)-5,16-dioxo-1,2,3,5,6,7,8,9,10,11,13a,14,14a,15,16,16a-hexadecahydrocyclopropa[e]pyrrolo[1,2-a][1,4]diazacyclopentadecin-6-yl)carbamate]", "values": [{"measurement": "fold improvement in potency against the D168A variant, replicon assay", "setting": "[3]; improvement, relative to the parent 18", "result": 2, "unit": "fold"}]}, {"smiles": "COc1ccc2nc(O[C@@H]3C[C@H]4C(=O)N[C@]5(C(=O)NS(=O)(=O)C6(C)CC6)C[C@H]5C=CCCCCC[C@H](NC(=O)OCC5(C(F)(F)F)CC5)C(=O)N4C3)c(C(F)(F)F)nc2c1", "note": "(stereo in doubt) [Compound 40, (1-(Trifluoromethyl)cyclopropyl)methyl ((2R,6S,13aS,14aR,16aS,Z)-2-((6-methoxy-3-(trifluoromethyl)quinoxalin-2-yl)oxy)-14a-(((1-methylcyclopropyl)sulfonyl)carbamoyl)-5,16-dioxo-1,2,3,5,6,7,8,9,10,11,13a,14,14a,15,16,16a-hexadecahydrocyclopropa[e]pyrrolo[1,2-a][1,4]diazacyclopentadecin-6-yl)carbamate]", "values": [{"measurement": "fold more active against the D168A variant", "setting": "[3]; more active, relative to 36", "result": 2, "unit": "fold"}, {"measurement": "fold improvement in antiviral activity against WT HCV", "setting": "[4]", "result": 2, "unit": "fold"}]}, {"smiles": "COc1ccc2nc(C)c(O[C@@H]3C[C@H]4C(=O)N[C@]5(C(=O)NS(=O)(=O)C6(C)CC6)C[C@H]5C=CCCCCC[C@H](NC(=O)OC(C)(C)C(F)(F)F)C(=O)N4C3)nc2c1", "note": "(stereo in doubt) [Compound 12, 1,1,1-Trifluoro-2-methylpropan-2-yl ((2R,6S,13aS,14aR,16aS,Z)-2-((7-methoxy-3-methylquinoxalin-2-yl)oxy)-14a-(((1-methylcyclopropyl)sulfonyl)carbamoyl)-5,16-dioxo-1,2,3,5,6,7,8,9,10,11,13a,14,14a,15,16,16a-hexadecahydrocyclopropa[e]pyrrolo[1,2-a][1,4]diazacyclopentadecin-6-yl)carbamate]", "values": [{"measurement": "EC50", "setting": "[1]", "result": "< 5", "unit": "nM"}, {"measurement": "EC50", "setting": "[4]; Hepatitis C virus, GT1A|GT1B, Huh-7, 96 h, read-out: EC50 against WT HCV", "result": "< 5", "unit": "nM"}]}, {"smiles": "COc1ccc2nc(O[C@@H]3C[C@H]4C(=O)N[C@]5(C(=O)NS(=O)(=O)C6(C)CC6)C[C@H]5C=CCCCCC[C@H](NC(=O)O[C@H](C)C(F)(F)F)C(=O)N4C3)c(C(F)(F)F)nc2c1", "note": "(stereo in doubt) [Compound 39, (R)-1,1,1-Trifluoropropan-2-yl ((2R,6S,13aS,14aR,16aS,Z)-2-((6-methoxy-3-(trifluoromethyl)quinoxalin-2-yl)oxy)-14a-(((1-methylcyclopropyl)sulfonyl)carbamoyl)-5,16-dioxo-1,2,3,5,6,7,8,9,10,11,13a,14,14a,15,16,16a-hexadecahydrocyclopropa[e]pyrrolo[1,2-a][1,4]diazacyclopentadecin-6-yl)carbamate]", "values": [{"measurement": "fold more potent in replicon assays", "setting": "HCV replicons", "result": "at least 2 fold"}]}, {"smiles": "CCC(C)(C)OC(=O)N[C@H]1CCCCCC=C[C@@H]2C[C@@]2(C(=O)NS(=O)(=O)C2(C)CC2)NC(=O)[C@@H]2C[C@@H](Oc3nc4ccc(OC)cc4nc3C(F)(F)F)CN2C1=O", "note": "(stereo in doubt) [Compound 28, tert-Pentyl ((2R,6S,13aS,14aR,16aS,Z)-2-((6-methoxy-3-(trifluoromethyl)quinoxalin-2-yl)oxy)-14a-(((1-methylcyclopropyl)sulfonyl)carbamoyl)-5,16-dioxo-1,2,3,5,6,7,8,9,10,11,13a,14,14a,15,16,16a-hexadecahydrocyclopropa[e]pyrrolo[1,2-a][1,4]diazacyclopentadecin-6-yl)carbamate]", "values": [{"measurement": "fold lower antiviral activity against the D168A variant", "setting": "[3]; lower, relative to 3", "result": 2, "unit": "fold"}]}, {"smiles": "COc1ccc2nc(O[C@@H]3C[C@H]4C(=O)N[C@]5(C(=O)NS(=O)(=O)C6(C)CC6)C[C@H]5C=CCCCCC[C@H](NC(=O)O[C@H](C)C(C)C)C(=O)N4C3)c(C(F)(F)F)nc2c1", "note": "(stereo in doubt) [Compound 31, (R)-3-Methylbutan-2-yl ((2R,6S,13aS,14aR,16aS,Z)-2-((6-methoxy-3-(trifluoromethyl)quinoxalin-2-yl)oxy)-14a-(((1-methylcyclopropyl)sulfonyl)carbamoyl)-5,16-dioxo-1,2,3,5,6,7,8,9,10,11,13a,14,14a,15,16,16a-hexadecahydrocyclopropa[e]pyrrolo[1,2-a][1,4]diazacyclopentadecin-6-yl)carbamate]", "values": [{"measurement": "fold less active against D168A replicon", "setting": "[3]; [5]", "result": 2, "unit": "fold"}, {"measurement": "fold less active against WT replicon", "setting": "[4]; [5]", "result": 2, "unit": "fold"}]}, {"smiles": "COc1ccc2nc(C)c(O[C@@H]3C[C@H]4C(=O)N[C@]5(C(=O)NS(=O)(=O)C6(C)CC6)C[C@H]5C=CCCCCC[C@H](NC(=O)O[C@@H](C)C(F)(F)F)C(=O)N4C3)nc2c1", "note": "(stereo in doubt) [Compound 13, (S)-1,1,1-Trifluoropropan-2-yl ((2R,6S,13aS,14aR,16aS,Z)-2-((7-methoxy-3-methylquinoxalin-2-yl)oxy)-14a-(((1-methylcyclopropyl)sulfonyl)carbamoyl)-5,16-dioxo1,2,3,5,6,7,8,9,10,11,13a,14,14a,15,16,16a-hexadecahydrocyclopropa[e]pyrrolo[1,2-a][1,4]diazacyclopentadecin-6-yl)carbamate]", "values": [{"measurement": "EC50", "setting": "[1]", "result": "< 10", "unit": "nM"}]}, {"smiles": "COc1ccc2nc(C)c(O[C@@H]3C[C@H]4C(=O)N[C@]5(C(=O)NS(=O)(=O)C6(C)CC6)C[C@H]5/C=C/CCCCC[C@H](NC(=O)OC5C[C@@H]6C[C@@H]6C5)C(=O)N4C3)nc2c1", "note": "(some centres unmarked) [Compound 20]", "values": [{"measurement": "EC50", "setting": "[1]", "result": 0.5, "unit": "nM"}]}, {"smiles": "COc1ccc2nc(O[C@@H]3C[C@H]4C(=O)N[C@]5(C(=O)NS(=O)(=O)C6(C)CC6)C[C@H]5C=CCCCCC[C@H](NC(=O)OC5(C(F)(F)F)CCCC5)C(=O)N4C3)c(C(F)(F)F)nc2c1", "note": "(stereo in doubt) [Compound 48, 1-(Trifluoromethyl)cyclopentyl ((2R,6S,13aS,14aR,16aS,Z)-2-((6-methoxy-3-(trifluoromethyl)quinoxalin-2-yl)oxy)-14a-(((1-methylcyclopropyl)sulfonyl)carbamoyl)-5,16-dioxo-1,2,3,5,6,7,8,9,10,11,13a,14,14a,15,16,16a-hexadecahydrocyclopropa[e]pyrrolo[1,2-a][1,4]diazacyclopentadecin-6-yl)carbamate]", "values": [{"measurement": "fold better potency against the D168A variant", "setting": "[3]; compared to 42", "result": 3, "unit": "fold"}]}, {"smiles": "COc1ccc2nc(C)c(O[C@@H]3C[C@H]4C(=O)N[C@]5(C(=O)NS(=O)(=O)C6(C)CC6)C[C@H]5C=CCCCCC[C@H](NC(=O)O[C@H](C)C(F)(F)F)C(=O)N4C3)nc2c1", "note": "(stereo in doubt) [Compound 14, (R)-1,1,1-Trifluoropropan-2-yl ((2R,6S,13aS,14aR,16aS,Z)-2-((7-methoxy-3-methylquinoxalin-2-yl)oxy)-14a-(((1-methylcyclopropyl)sulfonyl)carbamoyl)-5,16-dioxo-1,2,3,5,6,7,8,9,10,11,13a,14,14a,15,16,16a-hexadecahydrocyclopropa[e]pyrrolo[1,2-a][1,4]diazacyclopentadecin-6-yl)carbamate]", "values": [{"measurement": "fold better potency against the D168A variant", "setting": "[3]; relative to 13", "result": 2, "unit": "fold"}]}, {"smiles": "COc1ccc2nc(O[C@@H]3C[C@H]4C(=O)N[C@]5(C(=O)NS(=O)(=O)C6(C)CC6)C[C@H]5C=CCCCCC[C@H](NC(=O)OCC5(C)CC5(F)F)C(=O)N4C3)c(C(F)(F)F)nc2c1", "note": "(stereo in doubt) [Compound 41, (2,2-Difluoro-1-methylcyclopropyl)methyl ((2R,6S,13aS,14aR,16aS,Z)-2-((6-methoxy-3-(trifluoromethyl)quinoxalin-2-yl)oxy)-14a-(((1-methylcyclopropyl)sulfonyl)carbamoyl)-5,16-dioxo-1,2,3,5,6,7,8,9,10,11,13a,14,14a,15,16,16a-hexadecahydrocyclopropa[e]pyrrolo[1,2-a][1,4]diazacyclopentadecin-6-yl)carbamate]", "values": [{"measurement": "fold improvement in antiviral activity against WT HCV", "setting": "[4]", "result": 2, "unit": "fold"}]}]}
